Where two headings read alike, the source gives them in different places.
Columns and labels:
HCT116 MTAP null cells = assay: HCT116 MTAP null cell line proliferation (CellTiter-Glo cell viability, 6 days); type: cell-based; conditions: HCT116 MTAP null cells, 6 days of treatment, CellTiter-Glo cell viability, read-out: HCT-116 MTAP null IC50
In short: (§1)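 Viability by CellTiter-Glo after 6 days' drug exposure in wild-type HCT116 and its MTAP-null knockout, with DMSO-only control. Dosing used either 1:3 steps (top 1 or 10 μM) or 22 points in 1:2 steps (top 10 or 50 μM). IC50 taken where the fitted curve crosses 50% of control.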

HCT116 WT cells = assay: HCT116 WT cell line proliferation (CellTiter-Glo cell viability, 6 days); type: cell-based; conditions: HCT116 WT (parent) cells, 6 days of treatment, CellTiter-Glo cell viability, read-out: HCT-116 WT IC50
In short: as §1

IC50 (HCT116 MTAP null cells; HCT116-MTAP null, 144 h)	IC50 (HCT116 WT cells; Homo sapiens, HCT-116, 144 h)	IC50 (HCT116 MTAP null cells)	IC50 (HCT116 WT cells)	Compound
49 nM	1000 nM	–	–	C[C@H]1COC[C@@H](c2ccc(OC(F)(F)F)cc2F)N1C(=O)c1cc2c3c(c(N)nc2cn1)COC3 (racemic) [Example 328, (4-amino-1,3-dihydrofuro[3,4-c][1,7]naphthyridin-8-yl)((3R,5S)-3-(2-fluoro-4-(trifluoromethoxy)phenyl)-5-methyl-4-morpholinyl)methanone and (4-amino-1,3-dihydrofuro[3,4-c][1,7]naphthyridin-8-yl)((3S,5R)-3-(2-fluoro-4-(trifluoromethoxy)phenyl)-5-methyl-4-morpholinyl)methanone]
17 nM	523 nM	–	–	C[C@H]1OCc2c1c(N)nc1cnc(C(=O)N3CCOC[C@@H]3c3ccc(S(F)(F)(F)(F)F)cc3)cc21 [Example 417, ((3R)-4-amino-3-methyl-1,3-dihydrofuro[3,4-c][1,7]naphthyridin-8-yl)((3S)-3-(4-(pentafluoro-lambda~6~-sulfanyl)phenyl)-4-morpholinyl)methanone]
40 nM	2540 nM	–	–	Cn1ncc2c(N)nc3cc(F)c(C(=O)N4CC(c5ccc(C(F)(F)F)cc5)C4)cc3c21 [Example 427, (4-amino-7-fluoro-1-methyl-1H-pyrazolo[4,3-c]quinolin-8-yl)(3-(4-(trifluoromethyl)phenyl)-1-azetidinyl)methanone]
308 nM	16200 nM	–	–	C[C@H]1OCc2c1c(N)nc1ccc(C(=O)N3CCOC[C@H]3c3ccc(C(F)(F)F)cn3)cc21 (racemic) [Example 343, ((3R)-4-amino-3-methyl-1,3-dihydrofuro[3,4-c]quinolin-8-yl)((3R)-3-(5-(trifluoromethyl)-2-pyridinyl)-4-morpholinyl)methanone and ((3R)-4-amino-3-methyl-1,3-dihydrofuro[3,4-c]quinolin-8-yl)((3S)-3-(5-(trifluoromethyl)-2-pyridinyl)-4-morpholinyl)methanone]
–	–	421 nM	14600 nM	(4-amino-1-methyl-1H- pyrazolo[4,3- c][1,7]naphthyridin-8- yl)((3R)-3-(4- (trifluoromethyl)phenoxy)-1- pyrrolidinyl)methanone and (4-amino-1-methyl-1H- pyrazolo[4,3- c][1,7]naphthyridin-8- yl)((3S)-3-(4- (trifluoromethyl)phenoxy)-1- pyrrolidinyl)methanone [Example 433]
–	–	84 nM	2570 nM	C[C@@H]1COC[C@H](c2ccc(OC(F)F)nn2)N1C(=O)c1cc2c3c(c(N)nc2cn1)COC3 (racemic) [Example 381, (4-amino-1,3-dihydrofuro[3,4-c][1,7]naphthyridin-8-yl)((3R,5S)-3-(6-(difluoromethoxy)-3-pyridazinyl)-5-methyl-4-morpholinyl)methanone and (4-amino-1,3-dihydrofuro[3,4-c][1,7]naphthyridin-8-yl)((3S,5R)-3-(6-(difluoromethoxy)-3-pyridazinyl)-5-methyl-4-morpholinyl)methanone]
155 nM	5640 nM	–	–	Cc1n[nH]c2c1c(N)nc1cnc(C(=O)N3CCOC[C@@H]3c3ccc(C(F)(F)F)cc3)cc12 [Example 406, (4-amino-3-methyl-1H-pyrazolo[4,3-c][1,7]naphthyridin-8-yl)((3S)-3-(4-(trifluoromethyl)phenyl)-4-morpholinyl)methanone]
8 nM	352 nM	–	–	Cn1ncc2c(N)nc3cc(F)c(C(=O)N4CCOC[C@@H]4c4ccc(C(F)(F)C(F)(F)F)cc4)cc3c21 [Example 411, (4-amino-7-fluoro-1-methyl-1H-pyrazolo[4,3-c]quinolin-8-yl)((3S)-3-(4-(pentafluoroethyl)phenyl)-4-morpholinyl)methanone]
6 nM	84 nM	–	–	C[C@@H]1COC[C@H](c2ccc(OC(F)F)nn2)N1C(=O)c1cc2c3c(c(N)nc2cc1F)[C@@H](C)OC3 [Example 562, ((3R)-4-amino-7-fluoro-3-methyl-1,3-dihydrofuro[3,4-c]quinolin-8-yl)((3S,5R)-3-(6-(difluoromethoxy)-3-pyridazinyl)-5-methyl-4-morpholinyl)methanone]
786 nM	> 10000 nM	–	–	CC1(C)OCc2c1c(N)nc1ccc(C(=O)N3CCOC[C@@H]3c3ccc(OC(F)(F)F)cc3)cc21 [Example 382, (4-amino-3,3-dimethyl-1H-furo[3,4-c]quinolin-8-yl)-[(3S)-3-[4-(trifluoromethoxy)phenyl]morpholin-4-yl]methanone]
71 nM	3000 nM	–	–	C[C@H]1OCc2c1c(N)nc1ccc(C(=O)N3[C@@H](C)COC[C@H]3c3ccc(Cl)nc3)cc21 (racemic) [Example 312, ((3R)-4-amino-3-methyl-1,3-dihydrofuro[3,4-c]quinolin-8-yl)((3R,5S)-3-(6-chloro-3-pyridinyl)-5-methyl-4-morpholinyl)methanone and ((3R)-4-amino-3-methyl-1,3-dihydrofuro[3,4-c]quinolin-8-yl)((3S,5R)-3-(6-chloro-3-pyridinyl)-5-methyl-4-morpholinyl)methanone]
468 nM	8220 nM	–	–	C[C@H]1OCc2c1c(N)nc1ccc(C(=O)N3C[C@@H](c4ccc(F)cc4)[C@H](c4cc[nH]n4)C3)cc21 (racemic) [Example 434, ((3R)-4-amino-3-methyl-1,3-dihydrofuro[3,4-c]quinolin-8-yl)((3R,4S)-3-(4-fluorophenyl)-4-(1H-pyrazol-3-yl)-1-pyrrolidinyl)methanone and ((3R)-4-amino-3-methyl-1,3-dihydrofuro[3,4-c]quinolin-8-yl)((3S,4R)-3-(4-fluorophenyl)-4-(1H-pyrazol-3-yl)-1-pyrrolidinyl)methanone]
33 nM	850 nM	–	–	C[C@H]1COC[C@@H](c2ccc(Cl)nc2)N1C(=O)c1cc2c3c(c(N)nc2cc1F)COC3 (racemic) [Example 313, (4-amino-7-fluoro-1,3-dihydrofuro[3,4-c]quinolin-8-yl)((3R,5S)-3-(6-chloro-3-pyridinyl)-5-methyl-4-morpholinyl)methanone and (4-amino-7-fluoro-1,3-dihydrofuro[3,4-c]quinolin-8-yl)((3S,5R)-3-(6-chloro-3-pyridinyl)-5-methyl-4-morpholinyl)methanone]
138 nM	8010 nM	–	–	Nc1nc2cnc(C(=O)N3CCSC[C@@H]3c3ccc(C(F)(F)F)cc3)cc2c2c1COC2 (single isomer, unassigned) [Example 595, (4-amino-1,3-dihydrofuro[3,4-c][1,7]naphthyridin-8-yl)((3S)-3-(4-(trifluoromethyl)phenyl)-4-thiomorpholinyl)methanone or (4-amino-1,3-dihydrofuro[3,4-c][1,7]naphthyridin-8-yl)((3R)-3-(4-(trifluoromethyl)phenyl)-4-thiomorpholinyl)methanone]
575 nM	12000 nM	–	–	Cn1ncc2c(N)nc3cc(F)c(C(=O)N4CCOC[C@H]4c4ccc(C(F)(F)F)cn4)cc3c21 [Example 559, (4-amino-7-fluoro-1-methyl-1H-pyrazolo[4,3-c]quinolin-8-yl)((3R)-3-(5-(trifluoromethyl)-2-pyridinyl)-4-morpholinyl)methanone]
68 nM	1560 nM	–	–	Nc1nc2cc(Cl)c(C(=O)N3C[C@@H](c4ccc(F)cc4)[C@H](c4cc[nH]n4)C3)cc2c2c1COC2 (single isomer, unassigned) [Example 476]
6 nM	279 nM	–	–	CCOc1ccc([C@@H]2COC[C@H](C)N2C(=O)c2cc3c4c(c(N)nc3cc2Cl)COC4)nn1 (racemic) [Example 322, (4-amino-7-chloro-1,3-dihydrofuro[3,4-c]quinolin-8-yl)((3R,5S)-3-(6-ethoxy-3-pyridazinyl)-5-methyl-4-morpholinyl)methanone and (4-amino-7-chloro-1,3-dihydrofuro[3,4-c]quinolin-8-yl)((3S,5R)-3-(6-ethoxy-3-pyridazinyl)-5-methyl-4-morpholinyl)methanone]
175 nM	9390 nM	–	–	C[C@H]1OCc2c1c(N)nc1cnc(C(=O)N3CCOC[C@H]3c3ccc(C(F)(F)F)cn3)cc21 (racemic) [Example 357, ((3R)-4-amino-3-methyl-1,3-dihydrofuro[3,4-c][1,7]naphthyridin-8-yl)((3R)-3-(5-(trifluoromethyl)-2-pyridinyl)-4-morpholinyl)methanone and ((3R)-4-amino-3-methyl-1,3-dihydrofuro[3,4-c][1,7]naphthyridin-8-yl)((3S)-3-(5-(trifluoromethyl)-2-pyridinyl)-4-morpholinyl)methanone]
122 nM	6550 nM	–	–	C[C@H]1OCc2c1c(N)nc1ccc(C(=O)N3C[C@H](c4ccc(F)cc4)C(C)(C)C3)cc21 (single isomer, unassigned) [Example 463]
23 nM	548 nM	–	–	Cn1ncc2c3cc(C(=O)N4CCOC[C@@H]4c4ccc(S(F)(F)(F)(F)F)cc4)c(Cl)cc3nc(N)c21 [Example 419, (4-amino-7-chloro-3-methyl-3H-pyrazolo[3,4-c]quinolin-8-yl)((3S)-3-(4-(pentafluoro-lambda~6~-sulfanyl)phenyl)-4-morpholinyl)methanone]
> 1000 nM	> 10000 nM	–	–	Nc1nc2cnc(C(=O)N3CCOC[C@H]3c3ccc(C(F)(F)F)cc3)cc2c2c1COC2 (single isomer, unassigned) [Example 482]

Reference: patent US11845760B2, “PRMT5 inhibitors” (AMGEN INC., priority 2020, dated 2023)
